How the values were obtained:
Assay in all cases: relative viability (nuclei count vs DMSO), 5 days (fraction); higher = more cells survive
[1] = test system: HARA
Outline: (§1)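 Cells from lung cancer lines were seeded into 1536-well plates and, one day later, dosed by pin tool. Treatments were either a single drug or a fixed dose of an anchor drug with five library-drug doses (not always all listed) in √10 steps. After 5 days, nuclei were stained in a one-step fixation (final 0.05% Triton X-100, 1% formaldehyde, 1 ug/ml Hoechst) and counted on 4× images, and relative viability is the treated-to-vehicle nuclei ratio, as the median of duplicate plates.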

[2] = test system: H3255
Outline: as §1

[3] = test system: LC-2-ad
Outline: as §1

[4] = test system: PC-3 [JPC-3]
Outline: as §1

[5] = test system: NCI-H441
Outline: as §1

[6] = test system: NCI-H460
Outline: as §1

[7] = test system: HCC-15
Outline: as §1

[8] = test system: NCI-H1437
Outline: as §1

[9] = test system: SK-LU-1
Outline: as §1

[10] = test system: LCLC-97TM1
Outline: as §1

[11] = test system: LU99A
Outline: as §1

[12] = test system: NCI-H1915
Outline: as §1

[13] = test system: NCI-H661
Outline: as §1

[14] = test system: NCI-H2126
Outline: as §1

[15] = test system: EMC-BAC-2
Outline: as §1

[16] = test system: ChaGo-K-1
Outline: as §1

[17] = test system: NCI-H1792
Outline: as §1

[18] = test system: NCI-H1793
Outline: as §1

[19] = test system: HCC-827
Outline: as §1

[20] = test system: NCI-H1944
Outline: as §1

[21] = test system: NCI-H322M
Outline: as §1

[22] = test system: NCI-H23
Outline: as §1

[23] = test system: EKVX
Outline: as §1

Molecule `O=c1[nH]c2ccccc2n1C1CCN(CCCC(c2ccc(F)cc2)c2ccc(F)cc2)CC1` [Pimozide] + N=C(N)NC(=N)NCCc1ccccc1 [Phenformin] (partner 250 µM) has a relative viability ([1]; first compound 0.253 µM) of 0.503, a relative viability ([1]; first compound 0.8 µM) of 0.405 and a relative viability ([1]; first compound 2.53 µM) of 0.423. It also gave a relative viability ([1]; first compound 8 µM) of 0.431, a relative viability ([2]; first compound 0.253 µM) of 0.37 and a relative viability ([2]; first compound 0.8 µM) of 0.387. It also gave a relative viability ([2]; first compound 2.53 µM) of 0.372, a relative viability ([2]; first compound 8 µM) of 0.4 and a relative viability ([3]; first compound 0.08 µM) of 0.573. It also gave a relative viability ([3]; first compound 0.253 µM) of 0.558, a relative viability ([3]; first compound 0.8 µM) of 0.571 and a relative viability ([3]; first compound 2.53 µM) of 0.623. For the same molecule, the relative viability ([3]; first compound 8 µM) was 0.605, the relative viability ([4]; first compound 0.08 µM) was 0.357 and the relative viability ([4]; first compound 0.253 µM) was 0.469. For the same molecule, the relative viability ([4]; first compound 0.8 µM) was 0.451, the relative viability ([4]; first compound 2.53 µM) was 0.486 and the relative viability ([4]; first compound 8 µM) was 0.403. For the same molecule, the relative viability ([5]; first compound 0.08 µM) was 0.96, the relative viability ([5]; first compound 0.253 µM) was 0.758 and the relative viability ([5]; first compound 0.8 µM) was 0.767. It also gave a relative viability ([5]; first compound 2.53 µM) of 0.783, a relative viability ([5]; first compound 8 µM) of 0.825 and a relative viability ([6]; first compound 0.08 µM) of 0.556. It also gave a relative viability ([6]; first compound 0.253 µM) of 0.507, a relative viability ([6]; first compound 0.8 µM) of 0.501 and a relative viability ([6]; first compound 2.53 µM) of 0.516. The relative viability ([6]; first compound 8 µM) was 0.492, the relative viability ([7]; first compound 0.08 µM) was 0.511 and the relative viability ([7]; first compound 0.253 µM) was 0.431. The relative viability ([7]; first compound 0.8 µM) was 0.432, the relative viability ([7]; first compound 2.53 µM) was 0.433 and the relative viability ([7]; first compound 8 µM) was 0.448. The relative viability ([8]; first compound 0.08 µM) was 0.395, the relative viability ([8]; first compound 0.253 µM) was 0.318 and the relative viability ([8]; first compound 0.8 µM) was 0.327. For the same molecule, the relative viability ([8]; first compound 2.53 µM) was 0.275, the relative viability ([8]; first compound 8 µM) was 0.25 and the relative viability ([9]; first compound 0.08 µM) was 0.559. It also gave a relative viability ([9]; first compound 0.253 µM) of 0.533, a relative viability ([9]; first compound 0.8 µM) of 0.558 and a relative viability ([9]; first compound 2.53 µM) of 0.532. The relative viability ([9]; first compound 8 µM) was 0.415, the relative viability ([10]; first compound 0.08 µM) was 0.487 and the relative viability ([10]; first compound 0.253 µM) was 0.403. The relative viability ([10]; first compound 0.8 µM) was 0.356, the relative viability ([10]; first compound 2.53 µM) was 0.418 and the relative viability ([10]; first compound 8 µM) was 0.413. For the same molecule, the relative viability ([11]; first compound 0.08 µM) was 0.803, the relative viability ([11]; first compound 0.253 µM) was 0.837 and the relative viability ([11]; first compound 0.8 µM) was 0.573. For the same molecule, the relative viability ([11]; first compound 2.53 µM) was 0.765, the relative viability ([11]; first compound 8 µM) was 0.897 and the relative viability ([12]; first compound 0.08 µM) was 0.363. For the same molecule, the relative viability ([12]; first compound 0.253 µM) was 0.349, the relative viability ([12]; first compound 0.8 µM) was 0.349 and the relative viability ([12]; first compound 2.53 µM) was 0.366. For the same molecule, the relative viability ([12]; first compound 8 µM) was 0.367, the relative viability ([13]; first compound 0.08 µM) was 0.256 and the relative viability ([13]; first compound 0.253 µM) was 0.287. It also gave a relative viability ([13]; first compound 0.8 µM) of 0.257, a relative viability ([13]; first compound 2.53 µM) of 0.263 and a relative viability ([13]; first compound 8 µM) of 0.257. It also gave a relative viability ([14]; first compound 0.08 µM) of 0.513, a relative viability ([14]; first compound 0.253 µM) of 0.519 and a relative viability ([14]; first compound 0.8 µM) of 0.464. For the same molecule, the relative viability ([14]; first compound 2.53 µM) was 0.525, the relative viability ([14]; first compound 8 µM) was 0.584 and the relative viability ([15]; first compound 0.08 µM) was 0.561. It also gave a relative viability ([15]; first compound 0.253 µM) of 0.515, a relative viability ([15]; first compound 0.8 µM) of 0.483 and a relative viability ([15]; first compound 2.53 µM) of 0.486. For the same molecule, the relative viability ([15]; first compound 8 µM) was 0.519, the relative viability ([16]; first compound 0.08 µM) was 0.565 and the relative viability ([16]; first compound 0.253 µM) was 0.529. The relative viability ([16]; first compound 0.8 µM) was 0.461, the relative viability ([16]; first compound 2.53 µM) was 0.458 and the relative viability ([16]; first compound 8 µM) was 0.399. It also gave a relative viability ([17]; first compound 0.08 µM) of 0.356, a relative viability ([17]; first compound 0.253 µM) of 0.314 and a relative viability ([17]; first compound 2.53 µM) of 0.233. The relative viability ([17]; first compound 8 µM) was 0.278, the relative viability ([18]; first compound 0.253 µM) was 0.29 and the relative viability ([18]; first compound 0.8 µM) was 0.226. It also gave a relative viability ([18]; first compound 2.53 µM) of 0.237, a relative viability ([18]; first compound 8 µM) of 0.356 and a relative viability ([19]; first compound 0.253 µM) of 0.403. For the same molecule, the relative viability ([19]; first compound 0.8 µM) was 0.464, the relative viability ([19]; first compound 2.53 µM) was 0.443 and the relative viability ([19]; first compound 8 µM) was 0.42. For the same molecule, the relative viability ([20]; first compound 0.08 µM) was 0.191, the relative viability ([20]; first compound 0.253 µM) was 0.197 and the relative viability ([20]; first compound 0.8 µM) was 0.187. For the same molecule, the relative viability ([20]; first compound 2.53 µM) was 0.184, the relative viability ([20]; first compound 8 µM) was 0.198 and the relative viability ([21]; first compound 0.253 µM) was 0.738. It also gave a relative viability ([21]; first compound 0.8 µM) of 0.766, a relative viability ([21]; first compound 2.53 µM) of 0.816 and a relative viability ([21]; first compound 8 µM) of 0.749. For the same molecule, the relative viability ([22]; first compound 0.08 µM) was 0.782, the relative viability ([22]; first compound 0.253 µM) was 0.741 and the relative viability ([22]; first compound 0.8 µM) was 0.673. It also gave a relative viability ([22]; first compound 2.53 µM) of 0.692, a relative viability ([22]; first compound 8 µM) of 0.79 and a relative viability ([23]; first compound 0.08 µM) of 0.192. It also gave a relative viability ([23]; first compound 0.253 µM) of 0.235, a relative viability ([23]; first compound 0.8 µM) of 0.201 and a relative viability ([23]; first compound 2.53 µM) of 0.235. For the same molecule, the relative viability ([23]; first compound 8 µM) was 0.226.

Reference: the supplement of paper PMC10307832
